Measurements as given in patent US10654866B2, “Selective estrogen receptor degraders” (Eli Lilly and Company, priority 2018, dated 2020).

Assays:
ERα (Y537S mutant) = ERα (Y537S mutant) (Homo sapiens (Human), UniProt P03372, Y537S); experiment: ERα (Y537S mutant) competition binding assay; settings: 3H-estradiol competition; Ki from IC50 by Cheng-Prusoff
Description: Add the test compound at 10 different concentrations ranging from 10,000 nM to 0.5 nM, and determine nonspecific binding in the presence of 1 μM of 1713 estradiol. Incubate the binding reaction (140 μL) for 4 hours at room temperature, and then add cold dextran-charcoal buffer (70 μL) (containing per 50 mL of assay buffer, 0.75 g of charcoal and 0.25 g of dextran) to each reaction. Mix the plates for 8 minutes on an orbital shaker at 4° C. and then centrifuge at 3000 rpm at 4° C. for 10 minutes. Transfer an aliquot (120 μL) of the mixture to another 96-well, white flat bottom plate (Costar) and add Perkin Elmer Optiphase Supermix scintillation fluid (175 μL) to each well. Seal the plates and shake vigorously on an orbital shaker. After an incubation of 2.5 hours, read the plates in a Wallac Microbeta counter. […] Convert the IC50 values for the compound to Ki using Cheng-Prusoff equation.

ERα = ERα (Homo sapiens (Human), UniProt P03372); experiment: ERα degradation assay in MCF7 cells; format: cell-based; settings: 24 hours, % ER positive cells, read-out: Relative IC50
ERα, sequence (P03372 whole entry): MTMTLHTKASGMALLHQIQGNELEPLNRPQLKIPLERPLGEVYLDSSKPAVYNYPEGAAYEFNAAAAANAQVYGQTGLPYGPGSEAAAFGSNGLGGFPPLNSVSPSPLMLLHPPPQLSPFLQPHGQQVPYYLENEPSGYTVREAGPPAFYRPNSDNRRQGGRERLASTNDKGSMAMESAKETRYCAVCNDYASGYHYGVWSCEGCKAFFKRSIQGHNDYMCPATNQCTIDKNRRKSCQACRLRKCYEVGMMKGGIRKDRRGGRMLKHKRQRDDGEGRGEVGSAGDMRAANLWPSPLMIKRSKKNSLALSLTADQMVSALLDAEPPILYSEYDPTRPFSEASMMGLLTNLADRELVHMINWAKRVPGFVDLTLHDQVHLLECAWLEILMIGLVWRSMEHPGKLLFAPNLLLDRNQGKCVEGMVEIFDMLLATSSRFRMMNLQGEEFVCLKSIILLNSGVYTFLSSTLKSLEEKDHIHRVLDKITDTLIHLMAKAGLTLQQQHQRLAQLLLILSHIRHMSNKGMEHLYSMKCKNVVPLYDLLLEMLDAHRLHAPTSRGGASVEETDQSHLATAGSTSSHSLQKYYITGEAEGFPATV
Description: The purpose of the following ERα degradation assay is to measure the degradation of ERα by a test compound in an ERα positive breast cancer cell line such as MCF7.
Culture MCF7 (purchased from ATCC HTB-22) cells in DMEM media supplemented with 10% FBS, 0.01 mg/mL human insulin 1 and 1% penicillin/streptomycin antibiotics and plate in 384-well flat-bottom plates at a density of 4,000 cells per well in phenol red free DMEM media (20 μL) containing 10% charcoal stripped FBS. Incubate the cells overnight in a cell culture incubator (5% CO2, 95% relative humidity and 37° C.) and allow the cells to attach to the plate. The following day dose the cells with the test compound. Use an Echo 555 acoustic dispenser to prepare test compound serial dilutions (1:3) in a range from 6 μM to 0.0003 μM. Dose the cells with the addition of 5 μL from the serial dilution plate to the cell plate producing a final DMSO concentration of 0.2% with a final test compound concentration dose range between 2 and 0.0001 μM. For the maximum point, use media containing 0.2% of DMSO and for the minimum point, use fulvestrant diluted at 2 μM final concentrations in the growth media containing 0.2% DMSO. After dosing with the test compound, incubate the cell plates at 37° C. and 5% CO2 for 24 hours. Fix the cells by adding 14% para-formaldehyde (10 μL) for 30 minutes at room temperature. Wash the cells once with PBS (20 μL) and incubate with PBS (20 μL) containing 0.5% (v/v) TWEEN® 20 for 1 hour. Wash the cells with PBS containing 0.05% TWEEN® 20 (2×) and block with 3% BSA in PBS containing 0.05% TWEEN® 20 and 0.1% TRITON™ X-100 (20 μL/well) for 1 hour at room temperature. Add 1:500 Primary antibody (20 μL) (ERα (Clone SP1) monoclonal rabbit antibody # RM-9101-S, Thermo Scientific) dilution in 1% BSA in PBS containing 0.05% TWEEN® 20 per well, seal the plates and incubate overnight at 4° C. The following day wash the cells with PBS containing 0.05% TWEEN® 20 (2×) and incubate with secondary antibody (20 μL/well) (1:1000 dilution, Goat anti-rabbit IgM ALEXA FLUOR™ 488) in PBS 1% BSA for 105 minutes at room temperature. […] Seal the plates and incubate 1 hour at room temperature on the bench (preserved from light). Scan the plates with ACUMEN EXPLORER™ [Laser-scanning fluorescence microplate cytometer manufactured by TTP LABTECH LTD] to measure ERα. Image analysis is based on cellular fluorescent signals for identifying positive cells. Identify ER positive cells by mean intensity. Use total intensity at 575-640 nm from propidium iodide/DNA to identify individual cells. Assay output is % ER positive cells. Determine the IC50 by curve fitting to a four parameter logistic for each output using GENE DATA™.

[1] = biological target: Y537N mutant ERα receptor (Homo sapiens, UniProt P03372, Y537N); experiment: PRα inhibition (ERα functional antagonism) cell assay in MCF7-ESR1 Y537N 682 CRISPR cells; format: cell-based; settings: MCF7 Y537N 682 CRISPR cells, 72 hours, % PR positive cells; read-out: Relative IC50
Description: An antagonist in this assay is expected to block the function of the ERα receptor.
Incubate the cells overnight in a cell culture incubator (5% CO2, 95% relative humidity and 37° C.) and allow the cells to attach to the plate. The following day dose the cells with the test compound. Use an Echo 555 acoustic dispenser to prepare compound serial dilutions (1:3) in a range from 6 μM to 0.0003 μM. Dose the cells with the addition of 5 μL from the serial dilution plate to the cell plate producing a final DMSO concentration of 0.2% with a final test compound concentration dose range between 2 and 0.0001 μM. For the maximum point use media containing 0.2% of DMSO and for the minimum point, use fulvestrant diluted at 2 μM final concentrations in the growth media containing 0.2% DMSO. After dosing with test compound, incubate the cell plates at 37° C. and 5% CO2 for 72 hours. Fix the cells by adding 14% para-formaldehyde (10 μL) for 30 minutes at room temperature. Wash the cells with PBS (1×20 μL) and incubate with PBS (20 μL) of containing 0.5% (v/v) TWEEN® 20 for 1 hour. Wash the cells with PBS (2×20 μL) 0.05% TWEEN® 20, and block with 3% BSA/PBS 0.05% TWEEN® 20, 0.1% TRITON™ X-100 (20 μL/well) for 1 hour at room temperature. Add 1:500 primary antibody (20 μL) (PR monoclonal mouse anti-human antibody, clone PgR 636 Dako, M3569) dilution in 1% BSA/PBS 0.05 TWEEN® 20 per well, seal the plates and incubate overnight at 4° C.
The following day, wash the cells with PBS […] (2×20 μL) and incubate with secondary antibody (20 μL/well) (1:1000 dilution, Goat anti-rabbit IgM ALEXA FLUOR™ 488) in PBS 1% BSA for 105 minutes at room temperature. […] Seal the plates and incubate 1 hour at room temperature on the bench (preserved from light). Scan the plates with ACUMEN EXPLORER™ [Laser-scanning fluorescence microplate cytometer manufactured by TTP LABTECH LTD] to measure PRα. Image analysis is based on cellular fluorescent signals for identifying positive cells. Identify PR positive cells by mean intensity. Use total intensity at 575-640 nm from propidium iodide/DNA to identify individual cells. Assay output is % PR positive cells. Determine the IC50 by curve fitting to a four parameter logistic for each output using GENE DATA™.

ERα (Y537S mutant), sequence (P03372 whole entry Y537S): as the sequence (P03372 whole entry) above, with Y537S counted along it

Ki (ERα (Y537S mutant)): 5.44 nM
DC50 (ERα): 9.62 ± 5.2 nM
IC50 [1]: 8.93 ± 3.83 nM
SMILES: Cc1cccc2c1OC(c1ccc(OCCN3CC(CF)C3)cc1)c1c-2cnc2cc(O)ccc12 (single isomer, unassigned) [Example 8B, 5-(4-{2-[3-(Fluoromethyl)azetidin-1-yl]ethoxy}phenyl)-7-methyl-5H-[1]benzopyrano[4,3-c]quinolin-2-ol]
